US20040219202A1, “Pharmaceutical composition comprising lipids comprising a polar and a nonpolar moiety” (priority 2001, published 2004)
“Also recorded” adds a separate entry of the source.

What was measured:
Format in all cases: cell-based
Panc-1 and COS-7 cells = test: In vitro transfection of LMDs, overall statements without a single cell line; details: cell line not stated or across Panc-1 and COS-7 cells
Method: Purity of the lipids was checked by TLC or HPLC. All lipids were stored as stock solutions in anhydrous CH2Cl2, at concentrations of either 5 mg/ml or 10 mg/ml, at −80° C., under Ar. In order to prepare cationic liposomes, lipids were added to a round-bottomed flask, via syringe, under Ar, and further freshly distilled CH2Cl2 was added, if necessary, to give a concentration of around 2.5 mg/ml. Then, 4 mM HEPES pH 7.0 (1 ml) was added, and the biphasic system was swirled to mix. A liposomal suspension was created by removing the organic solvent under reduced pressure at 25° C., followed by sonication for 2-5 min. in a water bath sonicator. Doubly-distilled water was added, if necessary, to return the total volume to 1 ml. All liposomal solutions were prepared at a final concentration of 5 mg/ml. […]
Liposomes were extruded (Extruder, Northern Upids, Inc., Vancouver, BC, Canada) by passing through two 100 nm polycarbonate filters (Isopore™ Membrane Filters, Millipore (UK) Ltd., Watford, Hertfordshire, UK) ten times. For each preparation, the size distribution of liposomes was measured by photon correlation spectroscopy (PCS) (Coulter® N4 Plus Submicron Particle Sizer, Beckman Coulter, High Wycombe, Buckinghamshire, UK). […]

Panc-1 cells = test: Transfection of Panc-1 cells with LMDs (liposome:mu:DNA), β-galactosidase reporter assay; details: LMDs composed entirely of DOTAP or DOTAP-analogue liposomes, FIG. 19
Method: (§1) Purity of the lipids was checked by TLC or HPLC. All lipids were stored as stock solutions in anhydrous CH2Cl2, at concentrations of either 5 mg/ml or 10 mg/ml, at −80° C., under Ar. In order to prepare cationic liposomes, lipids were added to a round-bottomed flask, via syringe, under Ar, and further freshly distilled CH2Cl2 was added, if necessary, to give a concentration of around 2.5 mg/ml. Then, 4 mM HEPES pH 7.0 (1 ml) was added, and the biphasic system was swirled to mix. A liposomal suspension was created by removing the organic solvent under reduced pressure at 25° C., followed by sonication for 2-5 min. in a water bath sonicator. Doubly-distilled water was added, if necessary, to return the total volume to 1 ml. All liposomal solutions were prepared at a final concentration of 5 mg/ml. The pH of the liposomal suspension was checked by pH Boy (Camlab Ltd., Over, Cambridgeshire, UK) and adjusted to pH 7.0±0.1 with concentrated aqueous solutions of HCl and NaOH.
(§2) Liposomes were extruded (Extruder, Northern Upids, Inc., Vancouver, BC, Canada) by passing through two 100 nm polycarbonate filters (Isopore™ Membrane Filters, Millipore (UK) Ltd., Watford, Hertfordshire, UK) ten times. For each preparation, the size distribution of liposomes was measured by photon correlation spectroscopy (PCS) (Coulter® N4 Plus Submicron Particle Sizer, Beckman Coulter, High Wycombe, Buckinghamshire, UK). For phospholipid-containing liposomes, phospholipid concentrations were checked by the Stewart assay.^23 In each case, a final lipid concentration of 4.7±0.1 mg/ml was observed. For non-phospholipid containing liposomes, lipid loss was also inevitable on extrusion. For all fast-extruding liposomal suspensions, total lipid concentration was assumed to be 4.7 mg/ml. For slower extrusions, total lipid concentrations were assumed to be 4.3 mg/ml. Very slowly extruding liposomes were extruded three times only and assumed to be 4.7 mg/ml.
(§3) Plasmid DNA containing the β-galactosidase gene (pNGVL1-nt-beta-gal; 7.53 kbp) was stored as frozen aliquots at −80° C., at a concentration of 1.2 mg/ml; μ (mu) peptide (adenoviral core peptide [H2N-Met-Arg-Arg-Ala-His-His-Arg-Arg-Arg-Arg-Ala-Ser-His-Arg-Arg-Met-Arg-Gly-Gly-CO2H]) was synthesised as described previously,^7 and maintained at 4° C. in aliquots of 1 mg/ml. Mu-DNA complexes were made by adding plasmid DNA to mu in 4 mM HEPES at a ratio of 1:0.6 (w/w) with fast vortexing. LMDs were prepared by complexing mu-DNA particles with cationic liposomes (as prepared above) in a ratio of 1:12 (w/w), such that all LMDs for all formulations were substantially cationic. For each preparation, the size distribution of LMDs was measured by PCS.
Panc-1 cells were maintained in RPMI/10% FCS/1% penicillin-streptomycin (Gibco™, Invitrogen Corporation, Paisley, Scotland, UK) at 37° C./5% CO2 in a humidified atmosphere. Twenty-four hours prior to transfection, 30 000 cells per well were seeded in 48 well microtitre plates (Corning Costar, Merck Ltd., Lutterworth, Leicestershire, UK) in 500 μl medium. As a control, plasmid DNA (0.5 μg in 200 μl medium) was added to a well. As a positive control, 1.5 μl Transfast™ (Promega Corporation, Madison, Wis., USA; prepared according to the supplier's protocol) in 200 μl medium was complexed with plasmid DNA (0.5 μg) and added to a well. 5 μl (0.5 μg DNA) of LMD formulation was added to each well. All experiments were performed in quadruplicate. The plate was swirled for 30 s, and incubated for 1 h at 37° C. Medium was then removed, and 500 μl of fresh medium was added. The cells were incubated at 37° C. for a further 24 h.
Medium was aspirated from the wells and the cell layer was washed with phosphate buffered saline (PBS) (Gibco™). The cells of each well were lysed in 150 μl lysis reagent (prepared according to the supplier's protocol; β-Gal Reporter Gene Assay, Roche Diagnostics GmbH, D-68305 Mannheim, Germany) at room temperature for 30 min. […]

COS-7 cells = test: Transfection of COS-7 cells with LMDs (liposome:mu:DNA), β-galactosidase reporter assay; details: LMDs of pure DOTAP or DOTAP-analogue liposomes, FIG. 20
Method: as §1, §2, §3
COS-7 cells were maintained in DMEM/10% FCS/1% penicillin-streptomycin (Gibco™) at 37° C./5% CO2 in a humidified atmosphere. Twenty-four hours prior to transfection, 10 000 cells per well were seeded in 48-well microtitre plates (Coming Costar) in 500 μl medium. Plasmid DNA and Transfast™ controls were prepared as above. 5 μl (0.5 μg DNA) of LMD formulation was added to each well. All experiments were performed in quadruplicate. The plate was swirled for 30 s, and incubated for 1 h at 37° C. Medium was then removed, and 500 μl of fresh medium was added. The cells were incubated at 37° C. for a further 24 h.
Medium was aspirated from the wells and the cell layer was washed with phosphate buffered saline (PBS) (Gibco™). The cells of each well were lysed in 150 μl lysis reagent (prepared according to the supplier's protocol; β-Gal Reporter Gene Assay, Roche Diagnostics GmbH, D-68305 Mannheim, Germany) at room temperature for 30 min. After lysis, […], 50 μl and 20 μl, of each cell suspension were used for the determination of β-galactosidase activity and for the determination of total cellular protein (to normalise results), respectively.
In the β-gal assay, 100 μl of the substrate reagent was added to 50 μl of the cell suspension in a white 96-well microplate (Coming Costar). […]

**Q.** How did the “In vitro transfection, overall statement” value (Panc-1 and COS-7 cells) turn out when `CCCCCCCC/C=C\CCCCCCCC(=O)OCC(C[N+](C)(C)C)OC(=O)CCCCCCC/C=C\CCCCCCCC` (stereo not drawn) [DOTAP] was run?
**A.** The value was “transfect worse than CDAN:DOPE, 1:1 liposomes; also recorded: generally poor”.

**Q.** What about the “Transfection (β-galactosidase activity)” value (Panc-1 cells) of the same compound?
**A.** Its value is “transfect less well than the positive control Transfast”.

**Q.** And the “Transfection (β-galactosidase activity)” value (COS-7 cells)?
**A.** The value was “transfect similarly”.
